“And” between values parts separate entries of the source, which are not always exact repeats. Equal entries are not always repeated. Inconclusive results and toxic doses are left out. Rule for the calls: active = survival T/C of 150% or more; inactive = T/C below 125% in these data.
Tested on: BDF1 mice, P388 leukemia ip, median survival T/C
Assay: NCI In Vivo Anticancer Drug Screen. Data for tumor model P388 Leukemia (intraperitoneal) in B6D2F1 (BDF1) mice
Conditions: endpoint: median survival time, higher = longer survival
How it was run: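 Read-out is survival of treated animals expressed relative to the vehicle group, as a T/C ratio.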

[1] = dose: 100.0 mg/kg/injection, schedule: Q04DX003 (ip), vehicle: saline sonified
[2] = dose: 50.0 mg/kg/injection, schedule: Q01DX009 (ip), vehicle: saline
[3] = dose: 100.0 mg/kg/injection, schedule: Q01DX009 (ip), vehicle: saline
[4] = dose: 200.0 mg/kg/injection, schedule: Q01DX009 (ip), vehicle: saline
[5] = dose: 25.0 mg/kg/injection, schedule: Q04DX003 (ip), vehicle: saline with Tween-80
[6] = dose: 50.0 mg/kg/injection, schedule: Q04DX003 (ip), vehicle: saline with Tween-80
[7] = dose: 50.0 mg/kg/injection, schedule: Q01DX009 (ip), vehicle: saline with Tween-80
[8] = dose: 100.0 mg/kg/injection, schedule: Q04DX003 (ip), vehicle: saline with Tween-80
[9] = dose: 100.0 mg/kg/injection, schedule: Q01DX009 (ip), vehicle: saline with Tween-80
[10] = dose: 200.0 mg/kg/injection, schedule: Q04DX003 (ip), vehicle: saline with Tween-80

Measured: T/C

CCCC(=O)N(C)C(C)C(=O)OC1CC(=O)N(C)c2cc(cc(OC)c2Cl)C/C(C)=C/C=CC(OC)C2(O)CC(OC(=O)N2)C(C)C2OC12C (stereo not drawn)
inactive: dose: 0.1 micrograms/kg/injection, schedule: Q01DX009 (ip), vehicle: saline + alcohol 97 % of control | dose: 0.2 micrograms/kg/injection, schedule: Q01DX009 (ip), vehicle: saline + alcohol 93 % of control | dose: 0.4 micrograms/kg/injection, schedule: Q01DX009 (ip), vehicle: saline + alcohol 104 % of control | dose: 0.8 micrograms/kg/injection, schedule: Q01DX009 (ip), vehicle: saline + alcohol 96 % of control and 112 % of control | dose: 0.8 micrograms/kg/injection, schedule: Q01DX009 (ip), vehicle: saline 104 % of control | dose: 1.6 micrograms/kg/injection, schedule: Q01DX009 (ip), vehicle: saline + alcohol 102 % of control and 107 % of control | dose: 1.6 micrograms/kg/injection, schedule: Q01DX009 (ip), vehicle: saline 105 % of control | dose: 3.1 micrograms/kg/injection, schedule: Q01DX009 (ip), vehicle: saline + alcohol 88 % of control and 111 % of control | dose: 3.1 micrograms/kg/injection, schedule: Q01DX009 (ip), vehicle: saline 105 % of control | dose: 6.2 micrograms/kg/injection, schedule: Q01DX009 (ip), vehicle: saline + alcohol 92 % of control and 114 % of control | dose: 6.2 micrograms/kg/injection, schedule: Q01DX009 (ip), vehicle: saline 96 % of control | dose: 12.5 micrograms/kg/injection, schedule: Q01DX009 (ip), vehicle: saline + alcohol 113 % of control | dose: 12.5 micrograms/kg/injection, schedule: Q01DX009 (ip), vehicle: saline 110 % of control | dose: 25.0 micrograms/kg/injection, schedule: Q01DX009 (ip), vehicle: saline + alcohol 97 % of control | dose: 25.0 micrograms/kg/injection, schedule: Q01DX009 (ip), vehicle: saline 107 % of control | dose: 25.0 nanograms/kg/injection, schedule: Q## X009 (ip), vehicle: other 94 % of control | dose: 50.0 micrograms/kg/injection, schedule: Q01DX009 (ip), vehicle: saline + alcohol 105 % of control and 122 % of control | dose: 50.0 micrograms/kg/injection, schedule: Q01DX009 (ip), vehicle: saline 116 % of control | dose: 100.0 micrograms/kg/injection, schedule: Q01DX009 (ip), vehicle: saline + alcohol 111 % of control | dose: 200.0 micrograms/kg/injection, schedule: Q01DX009 (ip), vehicle: saline + alcohol 111 % of control and 117 % of control | dose: 200.0 nanograms/kg/injection, schedule: Q## X009 (ip), vehicle: other 88 % of control | dose: 400.0 nanograms/kg/injection, schedule: Q## X009 (ip), vehicle: other 102 % of control

NC(=O)C12CCCCC1CCC(=O)C2 (stereo not drawn)
inactive: dose: 25.0 mg/kg/injection, schedule: Q04DX003 (ip), vehicle: saline sonified 105 % of control | dose: 50.0 mg/kg/injection, schedule: Q04DX003 (ip), vehicle: saline sonified 100 % of control | [1] 95 % of control

O=S(=O)(O/C1=C/CCCCCC1)C(F)(F)C(F)(F)C(F)(F)C(F)(F)F
inactive: [2] 107 % of control | [3] 109 % of control | [4] 109 % of control

CC(C)(C)c1cc(C(C)(C)O)c2c(c1)C(C)(C)OS2(C)Cl (stereo not drawn)
inactive: dose: 12.5 mg/kg/injection, schedule: Q04DX003 (ip), vehicle: saline with Tween-80 100 % of control | [5] 100 % of control | [6] 96 % of control

N#CC(C#N)=c1ccc(=C(C#N)C#N)cc1
inactive: dose: 25.0 mg/kg/injection, schedule: Q01DX009 (ip), vehicle: saline with Tween-80 108 % of control | [5] 88 % of control | [7] 108 % of control | [6] 92 % of control | [8] 111 % of control

CCOC(C)C(/C=N/NC(N)=S)=NNC(N)=S (stereo not drawn)
inactive: dose: 25.0 mg/kg/injection, schedule: Q01DX009 (ip), vehicle: Klucel (hydroxypropylcellulose) (HPC) 110 % of control | dose: 50.0 mg/kg/injection, schedule: Q01DX009 (ip), vehicle: Klucel (hydroxypropylcellulose) (HPC) 115 % of control | [7] 107 % of control | [9] 96 % of control | dose: 100.0 mg/kg/injection, schedule: Q04DX003 (ip), vehicle: Klucel (hydroxypropylcellulose) (HPC) 109 % of control | [8] 86 % of control | dose: 150.0 mg/kg/injection, schedule: Q01DX009 (ip), vehicle: Klucel (hydroxypropylcellulose) (HPC) 110 % of control | dose: 200.0 mg/kg/injection, schedule: Q01DX009 (ip), vehicle: Klucel (hydroxypropylcellulose) (HPC) 122 % of control | dose: 200.0 mg/kg/injection, schedule: Q04DX003 (ip), vehicle: Klucel (hydroxypropylcellulose) (HPC) 100 % of control | [10] 91 % of control | dose: 400.0 mg/kg/injection, schedule: Q04DX003 (ip), vehicle: Klucel (hydroxypropylcellulose) (HPC) 104 % of control

CC(=O)Nc1ccn(CC(=O)c2ccco2)c(=O)n1
inactive: [9] 104 % of control | [8] 105 % of control | dose: 200.0 mg/kg/injection, schedule: Q01DX009 (ip), vehicle: saline with Tween-80 95 % of control | [10] 105 % of control | dose: 400.0 mg/kg/injection, schedule: Q01DX009 (ip), vehicle: saline with Tween-80 90 % of control | dose: 400.0 mg/kg/injection, schedule: Q04DX003 (ip), vehicle: saline with Tween-80 100 % of control

COc1ccc(/C=C/C(=O)c2ccc3cc(OC)c(OC)cc3c2)cc1OC
inactive: dose: 25.0 mg/kg/injection, schedule: Q01DX009 (ip), vehicle: saline 98 % of control | [2] 91 % of control | [3] 87 % of control | [4] 100 % of control | dose: 400.0 mg/kg/injection, schedule: Q01DX009 (ip), vehicle: saline 91 % of control

CCC(=N\NC(=S)NCCN(C)C)/C(C)=N/NC(=S)NCCN(C)C
inactive: dose: 0.75 mg/kg/injection, schedule: Q04DX003 (ip), vehicle: saline 103 % of control | dose: 1.5 mg/kg/injection, schedule: Q04DX003 (ip), vehicle: saline 103 % of control | dose: 3.0 mg/kg/injection, schedule: Q04DX003 (ip), vehicle: saline 97 % of control

CC12CCC3C(CCC4=CC(O)CCC43C=O)C1(O)CCC2c1ccc(=O)oc1 (stereo not drawn)
inactive: dose: 0.11 mg/kg/injection, schedule: Q01DX009 (ip), vehicle: saline + alcohol 100 % of control | dose: 0.33 mg/kg/injection, schedule: Q01DX009 (ip), vehicle: saline + alcohol 95 % of control | dose: 1.0 mg/kg/injection, schedule: Q01DX009 (ip), vehicle: saline + alcohol 95 % of control | dose: 3.0 mg/kg/injection, schedule: Q01DX010 (ip), vehicle: carboxymethylcellulose (CMC) 95 % of control

CCN(CC)c1ccc2cc3ccc(=[N+](CC)CC)cc-3oc2c1
inactive: dose: 2.5 mg/kg/injection, schedule: Q01DX009 (ip), vehicle: saline 120 % of control | dose: 7.5 mg/kg/injection, schedule: Q01DX009 (ip), vehicle: saline sonified 120 % of control | dose: 10.0 mg/kg/injection, schedule: Q04DX003 (ip), vehicle: saline 104 % of control

CCCC(Sc1nc(N)nc2nc[nH]c12)C(=O)O (stereo not drawn)
inactive: dose: 100.0 mg/kg/injection, schedule: Q01DX009 (ip), vehicle: saline sonified 115 % of control | [1] 109 % of control | dose: 200.0 mg/kg/injection, schedule: Q04DX003 (ip), vehicle: saline sonified 118 % of control | dose: 400.0 mg/kg/injection, schedule: Q01DX009 (ip), vehicle: saline sonified 100 % of control | dose: 400.0 mg/kg/injection, schedule: Q04DX003 (ip), vehicle: saline sonified 109 % of control

From PubChem BioAssay AID328 (DTP/NCI, 2004)
